Target: T1, NAE1 regulatory subunit APP-BP1 (NEDD8 activating enzyme, NAE) (Homo sapiens, UniProt Q13564)
T1 construct: APP-BP1/UBA3 (NEDD8 ligase E1); with UBA3
T1 sequence (Q13564 2-534): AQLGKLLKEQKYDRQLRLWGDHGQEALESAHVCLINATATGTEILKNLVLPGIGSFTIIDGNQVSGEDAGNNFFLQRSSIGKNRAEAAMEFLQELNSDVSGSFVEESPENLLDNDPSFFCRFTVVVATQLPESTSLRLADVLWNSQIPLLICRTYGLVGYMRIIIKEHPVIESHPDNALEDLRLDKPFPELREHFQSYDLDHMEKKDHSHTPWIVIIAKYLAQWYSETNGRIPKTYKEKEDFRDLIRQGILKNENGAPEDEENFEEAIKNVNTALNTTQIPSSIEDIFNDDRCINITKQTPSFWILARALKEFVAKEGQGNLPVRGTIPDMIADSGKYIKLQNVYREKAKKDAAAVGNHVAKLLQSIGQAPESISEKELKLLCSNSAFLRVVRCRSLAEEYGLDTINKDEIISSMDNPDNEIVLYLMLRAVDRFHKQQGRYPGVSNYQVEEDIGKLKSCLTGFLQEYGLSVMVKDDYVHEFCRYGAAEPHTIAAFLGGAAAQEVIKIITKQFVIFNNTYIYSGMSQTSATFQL
T1 sequence (Q8TBC4 2-463 partner): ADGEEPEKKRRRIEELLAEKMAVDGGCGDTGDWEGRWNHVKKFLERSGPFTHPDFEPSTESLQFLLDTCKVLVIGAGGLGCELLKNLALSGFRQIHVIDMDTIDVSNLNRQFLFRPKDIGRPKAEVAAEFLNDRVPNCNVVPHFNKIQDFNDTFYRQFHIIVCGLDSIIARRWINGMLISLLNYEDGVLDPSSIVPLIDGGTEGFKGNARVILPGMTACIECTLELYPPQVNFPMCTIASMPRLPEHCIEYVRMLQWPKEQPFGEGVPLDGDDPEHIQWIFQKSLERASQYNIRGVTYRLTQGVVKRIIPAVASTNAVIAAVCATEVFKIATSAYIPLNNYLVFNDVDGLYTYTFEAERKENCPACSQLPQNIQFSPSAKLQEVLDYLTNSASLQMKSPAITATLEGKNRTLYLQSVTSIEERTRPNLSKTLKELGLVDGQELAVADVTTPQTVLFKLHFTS
Assay: in vitro NEDD8 initiation conjugation assay (APP-BP1/UBA3, UbcH12, NEDD8; Western readout), supported by CETSA of APP-BP1 in PC3 cells
Format: biochemical
Procedure: in vitro NEDD8 initiation conjugation assay (APP-BP1/UBA3, UbcH12, NEDD8; Western readout), supported by CETSA of APP-BP1 in PC3 cells on NAE1 regulatory subunit APP-BP1 (NEDD8 activating enzyme, NAE) | The relative density of NEDD8-Ubc12 to the control was analyzed to have an estimated IC50 of approximately11μM

IC50: ~11 µM
Structure (SMILES): COc1cc(O)c(C(=O)/C=C/c2ccccc2)c(OC)c1 [FKB, Flavokawain B]
